Legend:
rhNQO1 = rhNQO1 (Homo sapiens, UniProt P15559); test: Prevention of GM and 17DMAG glutathione conjugate formation by rhNQO1; type: biochemical; details: for prevention of conjugation with glutathione by NQO1 reduction: 50 μM BA, 5 mM GSH, 11.8 μg rhNQO1, 500 μM NADH, pH 7.4, room temperature
[1] = in water; ref Lang et al., 2007; cited from earlier work
Metabolism [2] = details: mouse liver microsomes, 50 μM BA, pH 7.4, 35 °C; for oxygen consumption rates, NADPH-dependent metabolism, comparison: p<0.05; for relative oxygen consumption rates, NADH-dependent metabolism, rank order: > indicates p<0.05
[3] = Quinone/hydroquinone cycling in microsomal incubations; details: microsomal incubation with NAD(P)H; data not shown
[4] = BA-glutathione conjugate formation; details: 50 μM BA; for fraction of BA conjugated with glutathione / relative rate of glutathione conjugate formation, rank order: 5 mM glutathione, pH 7.4, room temperature; for fraction of BA conjugated with glutathione: data not shown
[5] = biological target: recombinant human NQO1 (rhNQO1) (Homo sapiens, UniProt P15559); test: Relative stability of hydroquinone ansamycins; type: physicochemical; details: for relative stability of BAH2 (nmol oxygen consumption per nmol NADH oxidized), rank order: 50 mM potassium phosphate buffer, pH 7.4, 35 °C, BAH2 generated by rhNQO1 and NADH, > indicates p<0.05
Chain of recombinant human NQO1 (rhNQO1) (P15559 whole entry): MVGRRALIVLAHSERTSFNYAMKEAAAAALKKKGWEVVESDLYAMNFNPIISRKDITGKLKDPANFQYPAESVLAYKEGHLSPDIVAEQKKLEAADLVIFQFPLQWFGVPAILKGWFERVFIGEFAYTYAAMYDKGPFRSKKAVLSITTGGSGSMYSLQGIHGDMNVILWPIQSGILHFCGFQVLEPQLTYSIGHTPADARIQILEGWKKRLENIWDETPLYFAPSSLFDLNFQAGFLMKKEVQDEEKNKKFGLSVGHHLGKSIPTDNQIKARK

Metabolism [6] = details: human liver microsomes, 50 μM BA, pH 7.4, 35 °C, > indicates p<0.05
[7] = 5 min, 50 μM, pH 7.4
[8] = biological target: T1, human NADPH-cytochrome P450 reductase (Homo sapiens, UniProt P16435); details: GM, NADH and NADPH-cytochrome P450 reductase, no NADPH
T1 sequence (P16435 1-677): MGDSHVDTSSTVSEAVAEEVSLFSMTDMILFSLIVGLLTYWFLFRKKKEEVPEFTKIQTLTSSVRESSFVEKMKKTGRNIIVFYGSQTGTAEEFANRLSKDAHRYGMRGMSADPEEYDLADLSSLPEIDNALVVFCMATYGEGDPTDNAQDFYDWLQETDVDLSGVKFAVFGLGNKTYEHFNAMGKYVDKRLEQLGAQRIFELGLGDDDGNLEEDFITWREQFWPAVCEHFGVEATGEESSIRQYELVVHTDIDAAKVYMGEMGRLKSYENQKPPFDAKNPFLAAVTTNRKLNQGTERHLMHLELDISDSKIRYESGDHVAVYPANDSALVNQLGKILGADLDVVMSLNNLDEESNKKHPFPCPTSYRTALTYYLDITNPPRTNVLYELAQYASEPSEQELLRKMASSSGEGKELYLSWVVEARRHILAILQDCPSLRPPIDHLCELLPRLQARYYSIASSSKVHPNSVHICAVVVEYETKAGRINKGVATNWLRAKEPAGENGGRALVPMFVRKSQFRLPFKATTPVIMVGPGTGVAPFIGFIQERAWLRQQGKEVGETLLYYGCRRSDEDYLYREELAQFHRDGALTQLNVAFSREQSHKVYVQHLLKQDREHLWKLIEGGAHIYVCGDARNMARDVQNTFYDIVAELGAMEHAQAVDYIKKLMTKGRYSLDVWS

Chain of rhNQO1 (P15559 whole entry): as the sequence (P15559 whole entry) above

oxygen consumption rates, NADPH-dependent metabolism, comparison (Metabolism [2]) | compound in the quinone form on HPLC [3] | relative stability of BAH2 (nmol oxygen consumption per nmol NADH oxidized), rank order [5] | Compound | relative oxygen consumption rates, NADH-dependent metabolism, rank order (Metabolism [2]) | relative oxygen consumption rates, NADH-dependent metabolism, rank order (Metabolism [6]) | relative oxygen consumption rates, NADPH-dependent metabolism, rank order (Metabolism [6]) | relative rate of glutathione conjugate formation, rank order [4] | further results
 |  |  | COC1=CC(=O)c2c(c(COc3ccc([N+](=O)[O-])cc3)c(C)n2C)C1=O [ES936, 5-methoxy-1,2-dimethyl-3-[(4-nitrophenoxy)methyl]indole-4,7-dione] |  |  |  |  | effect on NQO1-mediated prevention of BA glutathione conjugation (rhNQO1; pretreatment with 2 μM ES936, GM or 17DMAG with NADH, rhNQO1 and glutathione): abrogated
significantly slower compared to GM | > 95% |  | C=CCNC1=C2C[C@@H](C)C[C@H](OC)[C@H](O)[C@@H](C)/C=C(\C)[C@H](OC(N)=O)[C@@H](OC)/C=C\C=C(/C)C(=O)NC(=CC1=O)C2=O [17AAG, 17-(allylamino)-17-demethoxygeldanamycin] |  |  |  |  | one-electron redox potential [1]: −0.390 V; fraction of BA conjugated with glutathione ([4]; after 24 hours): less than 15%
 |  | GMH2>17AAGH2>17DMAGH2>17AGH2, 17AEP-GAH2 | C=CCNc1c(O)cc2c(O)c1C[C@@H](C)C[C@H](OC)[C@H](O)[C@@H](C)/C=C(\C)[C@H](OC(N)=O)[C@@H](OC)/C=C\C=C(/C)C(=O)N2 [17AAGH2, 17-(allylamino)-17-demethoxygeldanamycin hydroquinone] |  |  |  |  | 
 |  | GMH2>17AAGH2>17DMAGH2>17AGH2, 17AEP-GAH2 | CO[C@H]1/C=C\C=C(/C)C(=O)Nc2cc(O)c(NCCN(C)C)c(c2O)C[C@@H](C)C[C@H](OC)[C@H](O)[C@@H](C)/C=C(\C)[C@@H]1OC(N)=O [17DMAGH2, 17-demthoxy-17-[[2-(dimethylamino)ethyl]amino]-geldanamycin hydroquinone] |  |  |  |  | 
 |  | GMH2>17AAGH2>17DMAGH2>17AGH2, 17AEP-GAH2 | COC1C=CC=C(C)C(=O)Nc2cc(O)c(NCCN3CCCC3)c(c2O)CC(C)CC(OC)C(O)C(C)C=C(C)C1OC(N)=O (stereo not shown) [17AEP-GAH2, 17-demethoxy-17-[[2-(pyrrolidin-1-yl)ethyl]amino]-geldanamycin hydroquinone] |  |  |  |  | half-life of auto-oxidation of BAH2 back to quinone (in words) ([5]; auto-oxidation over time): a few minutes
significantly greater than 17AAG | > 95% |  | CO[C@H]1/C=C\C=C(/C)C(=O)NC2=CC(=O)C(N)=C(C[C@@H](C)C[C@H](OC)[C@H](O)[C@@H](C)/C=C(\C)[C@@H]1OC(N)=O)C2=O [17AG, 17-(amino)-17-demethoxygeldanamycin] | GM>17DMAG>17AG, 17AEP-GA, 17AAG | GM>17DMAG, 17AG, 17AEP-GA>17AAG | GM, 17DMAG, 17AEP-GA>17AG>17AAG | GM>17DMAG>17AEP-GA>17AAG, 17AG | fraction of BA conjugated with glutathione ([4]; after 24 hours): less than 15%
significantly greater than 17AAG | about 70% |  | COC1=C2C[C@@H](C)C[C@H](OC)[C@H](O)[C@@H](C)/C=C(\C)[C@H](OC(N)=O)[C@@H](OC)/C=C\C=C(/C)C(=O)NC(=CC1=O)C2=O [GM, geldanamycin] | GM>17DMAG>17AG, 17AEP-GA, 17AAG | GM>17DMAG, 17AG, 17AEP-GA>17AAG | GM, 17DMAG, 17AEP-GA>17AG>17AAG | GM>17DMAG>17AEP-GA>17AAG, 17AG | glutathione conjugate (GMH2-SG) formed [7]: approximately 45 μM; one-electron redox potential [1]: −0.243 V; oxygen consumption with NADH as cofactor [8]: no oxygen consumption was observed; prevention of conjugation with glutathione by NQO1 reduction (rhNQO1): > 95%

Compound | oxygen consumption rates, NADPH-dependent metabolism, comparison (Metabolism [2]) | compound in the quinone form on HPLC [3] | relative stability of BAH2 (nmol oxygen consumption per nmol NADH oxidized), rank order [5] | relative oxygen consumption rates, NADH-dependent metabolism, rank order (Metabolism [2]) | relative oxygen consumption rates, NADH-dependent metabolism, rank order (Metabolism [6]) | relative oxygen consumption rates, NADPH-dependent metabolism, rank order (Metabolism [6]) | relative rate of glutathione conjugate formation, rank order [4] | further results
COC1C=CC=C(C)C(=O)Nc2cc(O)c(N)c(c2O)CC(C)CC(OC)C(O)C(C)C=C(C)C1OC(N)=O (stereo not shown) [17AGH2, 17-(amino)-17-demethoxygeldanamycin hydroquinone] |  |  | GMH2>17AAGH2>17DMAGH2>17AGH2, 17AEP-GAH2 |  |  |  |  | 
CO[C@H]1/C=C\C=C(/C)C(=O)NC2=CC(=O)C(NCCN3CCCC3)=C(C[C@@H](C)C[C@H](OC)[C@H](O)[C@@H](C)/C=C(\C)[C@@H]1OC(N)=O)C2=O [17AEP-GA, 17-demethoxy-17-[[2-(pyrrolidin-1-yl)ethyl]amino]-geldanamycin] | significantly greater than 17AAG |  |  | GM>17DMAG>17AG, 17AEP-GA, 17AAG | GM>17DMAG, 17AG, 17AEP-GA>17AAG | GM, 17DMAG, 17AEP-GA>17AG>17AAG | GM>17DMAG>17AEP-GA>17AAG, 17AG | fraction of BA conjugated with glutathione ([4]; within 10 hours): about 90%
COc1c(O)cc2c(O)c1C[C@@H](C)C[C@H](OC)[C@H](O)[C@@H](C)/C=C(\C)[C@H](OC(N)=O)[C@@H](OC)/C=C\C=C(/C)C(=O)N2 [GMH2, geldanamycin hydroquinone] |  |  | GMH2>17AAGH2>17DMAGH2>17AGH2, 17AEP-GAH2 |  |  |  |  | half-life of auto-oxidation of BAH2 back to quinone ([5]; auto-oxidation over time): about 20 hours
CO[C@H]1/C=C\C=C(/C)C(=O)NC2=CC(=O)C(NCCN(C)C)=C(C[C@@H](C)C[C@H](OC)[C@H](O)[C@@H](C)/C=C(\C)[C@@H]1OC(N)=O)C2=O [17DMAG, 17-demethoxy-17-[[2-(dimethylamino)ethyl]amino]-geldanamycin] | significantly greater than 17AAG | > 95% |  | GM>17DMAG>17AG, 17AEP-GA, 17AAG | GM>17DMAG, 17AG, 17AEP-GA>17AAG | GM, 17DMAG, 17AEP-GA>17AG>17AAG | GM>17DMAG>17AEP-GA>17AAG, 17AG | prevention of conjugation with glutathione by NQO1 reduction (rhNQO1): > 95%; glutathione conjugate (17DMAG-SG) formed ([4]; 5 mM reduced glutathione, phosphate buffer pH 7.4, room temperature, within 4 hours): approximately 47 μM
